From PubChem BioAssay (NCI)
“And” between values parts separate entries of the source, which are not always exact repeats. Equal values may be shown once.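 Results reflect a 48-hour exposure of cells in 96-well plates to compound at five concentrations. GI50: concentration for 50% inhibition of growth. TGI: concentration producing complete growth inhibition.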

Experiments:
Assay in all cases: growth of human tumour cells (NCI), 48 h
[1] = system: K-562 leukemia
[2] = system: SF-295 CNS
[3] = system: SN12C renal
[4] = system: MALME-3M melanoma
[5] = system: OVCAR-3 ovarian
[6] = system: CCRF-CEM leukemia
[7] = system: SF-539 CNS
[8] = system: HS 578T breast
[9] = system: ACHN renal
[10] = system: SK-MEL-5 melanoma

SMILES	GI50 [1]	TGI [1]	GI50 [2]	TGI [2]	GI50 [3]	TGI [3]	GI50 [4]	TGI [4]	GI50 [5]	TGI [5]	GI50 [6]	TGI [6]	GI50 [7]	TGI [7]	GI50 [8]	TGI [8]	GI50 [9]	TGI [9]	GI50 [10]	TGI [10]
O=C(Nc1cccc2cccnc12)c1ccc(N2C(=O)[C@@H]3[C@H](C2=O)[C@@H]2C=C[C@H]3C2)cc1	24.5 µM	> 100 µM	24.9 µM	> 86.9 µM	28.7 µM	> 100 µM	21.5 µM	> 100 µM	20.7 µM	> 100 µM	30.1 µM	> 100 µM	77.8 µM	> 100 µM	40.8 µM	> 100 µM	36.4 µM	> 100 µM	13.4 µM	29.6 µM
Cc1[nH]nc2c1N=C(c1ccccc1F)c1cc(C#N)ccc1N2	0.11 µM	> 25 µM	0.207 µM	15.9 µM	3.87 µM	15.1 µM	14.7 µM	> 25 µM	0.0887 µM	8.31 µM	0.113 µM	> 13.6 µM	0.134 µM	4.93 µM	0.122 µM	3.83 µM	0.326 µM	5.37 µM	0.0971 µM	9.39 µM
COc1cccc2c1cc([N+](=O)[O-])c1c(C(=O)O)cc3c(c12)OCO3	46.3 µM	> 100 µM	17.4 µM	> 100 µM	48.7 µM	> 100 µM	31.1 µM	> 100 µM	26.1 µM	71.2 µM and > 100 µM	28.2 µM	> 100 µM	–	> 75.8 µM	36.3 µM	> 100 µM	35.2 µM	> 100 µM	22.3 µM	72.2 µM and > 100 µM
COc1ccc2[nH]c(-c3cccc(N(C)C)c3)cc(=O)c2c1	0.321 µM	17.3 µM	3.71 µM	–	0.654 µM	> 100 µM	–	> 100 µM	–	0.368 µM	–	0.907 µM	0.391 µM	–	–	0.509 µM	–	> 100 µM	0.305 µM	–
CCCCCCNC(=O)Oc1ccc(/C(=C(\C)c2ccccc2)c2ccc(OCCN3CCCCC3)cc2)cc1	1.7 µM	4.96 µM	1.74 µM	3.5 µM	1.7 µM	3.4 µM	1.75 µM	3.46 µM	1.97 µM	4.82 µM	3.05 µM	17.2 µM	1.75 µM	3.22 µM	2.71 µM	13.4 µM	2.85 µM	10.9 µM	1.63 µM	2.99 µM
C=C1C(=O)O[C@H]2[C@H]1[C@H](OC(=O)/C(C)=C\C)C[C@]1(CO1)[C@@H]1[C@H](OC(C)=O)C=C(C)[C@]21O	–	11.8 µM	–	> 100 µM	–	30.2 µM	–	35.3 µM	–	32.1 µM	–	15.6 µM	–	> 93.9 µM	–	> 100 µM	–	24.5 µM	–	37.2 µM
O=C(O)c1ccc(-c2ccc(C(=O)O)cc2I)c(I)c1	> 100 µM	> 100 µM	> 100 µM	> 100 µM	> 100 µM	> 100 µM	> 100 µM	> 100 µM	> 100 µM	> 100 µM	> 100 µM	> 100 µM	> 100 µM	> 100 µM	> 100 µM	> 100 µM	> 100 µM	> 100 µM	> 100 µM	> 100 µM
CS(=O)(=O)OCCN(CCOS(C)(=O)=O)c1ccc(C=Nc2ccc3oc(=O)ccc3c2)cc1	–	> 100 µM	–	42.2 µM	–	> 70.5 µM	–	23.8 µM	–	24.1 µM	–	31.8 µM	–	35.3 µM	–	92.1 µM	–	4.91 µM	–	32.8 µM
O=C(c1ccco1)c1c(C(F)(F)F)nc2cc(C(F)(F)F)ccc2[n+]1[O-]	38.3 µM	> 100 µM	17.5 µM	40.4 µM	43.7 µM	> 100 µM	54.2 µM	> 100 µM	37.8 µM	> 100 µM	15.6 µM	44.3 µM	21.2 µM	54.2 µM	26.7 µM	74.9 µM	82.1 µM	> 100 µM	> 100 µM	> 100 µM
CCOC(=O)N1C/C(=C/c2ccc(OC)cc2)C(=O)/C(=C/c2ccc(OC)cc2)C1	1.72 µM	> 100 µM	2.17 µM	5.81 µM	1.91 µM	4.23 µM	4.76 µM	> 33.9 µM	2.75 µM	7.81 µM	2.85 µM	> 100 µM	1.81 µM	3.7 µM	2.85 µM	> 100 µM	1.96 µM	5.18 µM	1.6 µM	3.17 µM
Cc1c2ncccc2nc2[nH]c3ccc(OCCN(C)C)cc3c12	0.802 µM	14.6 µM	1.59 µM	13 µM	2.5 µM	28.5 µM	2.42 µM	13.5 µM	3.62 µM	19.7 µM	2.1 µM	20.9 µM	2.58 µM	13.9 µM	3.77 µM	33.7 µM	0.75 µM	7.95 µM	9.77 µM	21.9 µM
COc1ccc2c(c1OC)-c1c(c3ccc([N+](=O)[O-])cc3c(=O)n1CCCN=[N+]=[N-])C2=O	23.3 µM	> 100 µM	3.11 µM	28.4 µM	11.5 µM	> 100 µM	> 100 µM	> 100 µM	56.1 µM	> 100 µM	2.04 µM	17.1 µM	5.23 µM	40.3 µM	> 100 µM	> 100 µM	3.63 µM	22.1 µM	12.2 µM	> 100 µM
CCn1c(-c2nonc2N)nc2c(C#CC(C)(C)O)nc(O[C@@H](CN)c3ccccc3)cc21	0.122 µM	4.26 µM	0.0333 µM	1 µM	0.208 µM	2.82 µM	0.447 µM	1.47 µM	0.0845 µM	0.314 µM	0.0554 µM	5.16 µM	0.116 µM	0.874 µM	0.0453 µM	1.09 µM	0.689 µM	4.73 µM	0.413 µM	0.892 µM
COc1ccc(NC(=O)c2sc3nc(C)c(C(O)c4ccc(OC)cc4)cc3c2N)cc1 (stereo unspecified)	0.509 µM	> 50 µM	0.299 µM	9.79 µM	2.25 µM	> 50 µM	2.65 µM	> 50 µM	0.365 µM	5.31 µM	1.44 µM	> 50 µM	1.02 µM	4.44 µM	0.821 µM	4.09 µM	2.51 µM	> 50 µM	0.569 µM	6.82 µM
O=[N+]([O-])c1cc(Cl)cc2c1nc(NCCO)c1ccccc12	–	> 94 µM	–	> 100 µM	–	> 100 µM	–	57.1 µM	–	> 100 µM	–	> 100 µM	–	> 100 µM	–	> 100 µM	–	> 100 µM	–	3.96 µM
Cc1ccc(C2SCc3nc4ccc(C(=O)c5ccccc5)cc4n32)cc1 (stereo unspecified)	3.74 µM	> 100 µM	8.21 µM	33 µM	11.4 µM	38.3 µM	6.27 µM	26.8 µM	6.72 µM	21.9 µM	23.8 µM	> 100 µM	13.4 µM	32.5 µM	22.2 µM	68.9 µM	14.1 µM	> 56.9 µM	1.33 µM	7.48 µM
Oc1ccc(/C=N/Nc2nc3ccccc3s2)c(O)c1	2.59 µM	> 100 µM	2.86 µM	35.4 µM	2.09 µM	57.9 µM	1.43 µM	7.26 µM	1.92 µM	12.8 µM	0.717 µM	> 100 µM	1.89 µM	9.82 µM	2.91 µM	> 100 µM	1.11 µM	9.89 µM	3.37 µM	> 100 µM
COc1ccc(/C(Cl)=C(\C=O)c2ccc(OC)c(OC)c2)cc1OC	–	> 100 µM	–	48.2 µM	–	> 100 µM	–	> 100 µM	–	> 57.7 µM	–	> 100 µM	–	> 100 µM	–	> 100 µM	–	> 100 µM	–	> 100 µM
